Reference: ChEMBL document CHEMBL1139533, “Structure-activity relationship studies of a series of antiviral and antibacterial aglycon derivatives of the glycopeptide antibiotics vancomycin, eremomycin, and dechloroeremomycin” (J Med Chem, 2005)
≈ marks a conversion by molar mass, not a printed value.

What was measured:
[1] = system: Enterococcus faecalis; assay: Minimum inhibitory concentration against 559 glycopeptide susceptible enterococci Enterococcus faecalis; format: functional
[2] = system: Staphylococcus aureus; assay: Minimum inhibitory concentration against glycopeptide intermediate-resistant 3797 Staphylococcus aureus; format: functional
[3] = system: Enterococcus faecalis; assay: Minimum inhibitory concentration against glycopeptide resistant enterococci 560 Enterococcus faecalis; format: functional
[4] = system: Staphylococcus epidermidis; assay: Minimum inhibitory concentration against 533 Staphylococcus epidermidis; format: functional
[5] = system: Enterococcus faecium; assay: Minimum inhibitory concentration against glycopeptide resistant enterococci 569 Enterococcus faecium; format: functional
[6] = system: Staphylococcus haemolyticus; assay: Minimum inhibitory concentration against 602 Staphylococcus haemolyticus; format: functional
[7] = system: Staphylococcus aureus; assay: Minimum inhibitory concentration against glycopeptide intermediate-resistant 3798 Staphylococcus aureus; format: functional
[8] = system: Enterococcus faecium; assay: Minimum inhibitory concentration against glycopeptide susceptible enterococci 568 Enterococcus faecium; format: functional
[9] = system: CCRF-CEM; assay: Cytostatic activity to the compound against CEM cell line; format: functional, cell-based; conditions: Homo sapiens
[10] = system: Human immunodeficiency virus 2; assay: Effective concentration against human immunodeficiency virus type 2; format: functional, organism-based
[11] = system: L1210; assay: Cytostatic activity against L1210 cell line; format: functional, cell-based; conditions: Mus musculus
[12] = system: MOLT-4; assay: Cytostatic activity to the compound against Molt4/C8 cell line; format: functional, cell-based; conditions: Homo sapiens
[13] = system: Human immunodeficiency virus 1; assay: Effective concentration against human immunodeficiency virus type 1; format: functional, organism-based
[14] = system: Moloney murine sarcoma virus; assay: Effective concentration against Moloney sarcoma virus; format: functional, organism-based, Viruses
[15] = system: C3H/3T3; assay: Minimal cytotoxic concentration to cause an alteration in C3H/3T3 cell line morphology; format: functional; conditions: Mus musculus

SMILES	MIC [1] [µg/mL]	MIC [2] [µg/mL]	MIC [3] [µg/mL]	MIC [4] [µg/mL]	MIC [5] [µg/mL]	MIC [6] [µg/mL]	MIC [7] [µg/mL]	MIC [8] [µg/mL]	IC50 [9] [µM]	EC50 [10] [µM]	IC50 [11] [µM]	IC50 [12] [µM]	EC50 [13] [µM]	EC50 [14] [µM]	MCC [15] [µg/mL]
NC(=O)C[C@@H]1NC(=O)[C@H](N)[C@H](O)c2ccc(cc2)Oc2cc3cc(c2O)Oc2ccc(cc2)[C@@H](O)[C@@H]2NC(=O)[C@H](NC(=O)[C@@H]3NC1=O)c1ccc(O)c(c1)-c1c(O)cc(O)cc1[C@@H](C(=O)O)NC2=O	> 128	> 128	> 128	> 128	> 128	> 128	> 128	> 128							
CN[C@H](CC(C)C)C(=O)N[C@H]1C(=O)N[C@@H](CC(N)=O)C(=O)N[C@H]2C(=O)N[C@H]3C(=O)N[C@H](C(=O)N[C@H](C(=O)NCC45CC6CC(CC(C6)C4)C5)c4cc(O)cc(O)c4-c4cc3ccc4O)[C@H](O)c3ccc(c(Cl)c3)Oc3cc2cc(c3O)Oc2ccc(cc2Cl)[C@H]1O [listing 1 of 2 here]									≥ 250	9.5	≥ 250	72	3	10	
CN[C@H](CC(C)C)C(=O)N[C@H]1C(=O)N[C@@H](CC(N)=O)C(=O)N[C@H]2C(=O)N[C@H]3C(=O)N[C@H](C(=O)N[C@H](C(=O)O)c4cc(O)cc(O)c4-c4cc3ccc4O)[C@H](O)c3ccc(cc3)Oc3cc2cc(c3O)Oc2ccc(cc2)[C@H]1O	32 (≈ 29.8 µM)	> 32	> 64	32 (≈ 29.8 µM)	> 64	> 32	> 32	32 (≈ 29.8 µM)	> 250	> 125	> 250	> 250	> 125	≥ 100	≥ 100
CN[C@H](CC(C)C)C(=O)N[C@H]1C(=O)N[C@@H](CC(N)=O)C(=O)N[C@H]2C(=O)N[C@H]3C(=O)N[C@H](C(=O)N[C@H](C(=O)NCCCCCCCCCCN)c4cc(O)cc(O)c4-c4cc3ccc4O)[C@H](O)c3ccc(c(Cl)c3)Oc3cc2cc(c3O)Oc2ccc(cc2Cl)[C@H]1O [listing 1 of 2 here]									≥ 250	18.3	> 250	228	2.5	5	
CN[C@H](CC(C)C)C(=O)N[C@H]1C(=O)N[C@@H](CC(N)=O)C(=O)N[C@H]2C(=O)N[C@H]3C(=O)N[C@H](C(=O)N[C@H](C(=O)NCC45CC6CC(CC(C6)C4)C5)c4cc(O)cc(O)c4-c4cc3ccc4O)[C@H](O)c3ccc(c(Cl)c3)Oc3cc2cc(c3O)Oc2ccc(cc2Cl)[C@H]1O [listing 2 of 2 here]	1 (≈ 0.774 µM)	2 (≈ 1.55 µM)	16 (≈ 12.4 µM)	2 (≈ 1.55 µM)	16 (≈ 12.4 µM)	2 (≈ 1.55 µM)	2 (≈ 1.55 µM)	2 (≈ 1.55 µM)							≥ 100
CN[C@H](CC(C)C)C(=O)N[C@H]1C(=O)N[C@@H](CC(N)=O)C(=O)N[C@H]2C(=O)N[C@H]3C(=O)N[C@H](C(=O)N[C@H](C(=O)NC4C5CC6CC(C5)CC4C6)c4cc(O)cc(O)c4-c4cc3ccc4O)[C@H](O)c3ccc(c(Cl)c3)Oc3cc2cc(c3O)Oc2ccc(cc2Cl)[C@H]1O (stereo partly specified) [listing 1 of 2 here]									> 250	8.5	≥ 250	≥ 250	3	13	
CN[C@H](CC(C)C)C(=O)N[C@H]1C(=O)N[C@@H](CC(N)=O)C(=O)N[C@H]2C(=O)N[C@H]3C(=O)N[C@H](C(=O)N[C@H](C(=O)NCCCCCCCCCCN)c4cc(O)cc(O)c4-c4cc3ccc4O)[C@H](O)c3ccc(cc3)Oc3cc2cc(c3O)Oc2ccc(cc2Cl)[C@H]1O	8 (≈ 6.33 µM)	8 (≈ 6.33 µM)	32 (≈ 25.3 µM)	8 (≈ 6.33 µM)	32 (≈ 25.3 µM)	8 (≈ 6.33 µM)	8 (≈ 6.33 µM)	8 (≈ 6.33 µM)	202	25	≥ 250	196	8.5	> 4	20
CN[C@H](CC(C)C)C(=O)N[C@H]1C(=O)N[C@@H](CC(N)=O)C(=O)N[C@H]2C(=O)N[C@H]3C(=O)N[C@H](C(=O)N[C@H](C(=O)O)c4cc(O)cc(O)c4-c4cc3ccc4O)[C@H](O)c3ccc(cc3)Oc3cc2cc(c3O)Oc2ccc(cc2Cl)[C@H]1O	16 (≈ 14.4 µM)	> 64	> 128	32 (≈ 28.8 µM)	> 128	16 (≈ 14.4 µM)	> 64	32 (≈ 28.8 µM)	> 500	≥ 250	> 500	> 500	50	> 100	> 100
CN[C@H](CC(C)C)C(=O)N[C@H]1C(=O)N[C@@H](CC(N)=O)C(=O)N[C@H]2C(=O)N[C@H]3C(=O)N[C@H](C(=O)N[C@H](C(=O)O)c4cc(O)cc(O)c4-c4cc3ccc4O)[C@H](O)c3ccc(c(Cl)c3)Oc3cc2cc(c3O)Oc2ccc(cc2Cl)[C@H]1O [listing 1 of 2 here]	2 (≈ 1.75 µM)	4 (≈ 3.5 µM)	> 64	4 (≈ 3.5 µM)	> 64	8 (≈ 6.99 µM)	4 (≈ 3.5 µM)	4 (≈ 3.5 µM)							> 100
NCCCCCCCCCCNC(=O)[C@H]1NC(=O)[C@H]2NC(=O)[C@H](NC(=O)[C@@H]3NC(=O)[C@H](CC(N)=O)NC(=O)[C@H](N)[C@H](O)c4ccc(c(Cl)c4)Oc4cc3cc(c4O)Oc3ccc(cc3Cl)[C@H]2O)c2ccc(O)c(c2)-c2c(O)cc(O)cc21	> 64	> 32	> 64	> 32	> 64	> 32	> 32	> 64	139	≥ 25	> 250	≥ 250	≥ 25	9.3	100
NC(=O)C[C@@H]1NC(=O)[C@H](N)[C@H](O)c2ccc(c(Cl)c2)Oc2cc3cc(c2O)Oc2ccc(cc2)[C@@H](O)[C@@H]2NC(=O)[C@H](NC(=O)[C@@H]3NC1=O)c1ccc(O)c(c1)-c1c(O)cc(O)cc1[C@@H](C(=O)NCC13CC4CC(CC(C4)C1)C3)NC2=O	> 64	> 32	> 64	> 32	> 64	> 32	> 32	> 64	> 250	3.5	175	> 250	5.5		
CN[C@H](CC(C)C)C(=O)N[C@H]1C(=O)N[C@@H](CC(N)=O)C(=O)N[C@H]2C(=O)N[C@H]3C(=O)N[C@H](C(=O)N[C@H](C(=O)NC4C5CC6CC(C5)CC4C6)c4cc(O)cc(O)c4-c4cc3ccc4O)[C@H](O)c3ccc(c(Cl)c3)Oc3cc2cc(c3O)Oc2ccc(cc2Cl)[C@H]1O (stereo partly specified) [listing 2 of 2 here]	2 (≈ 1.57 µM)	4 (≈ 3.13 µM)	32 (≈ 25.1 µM)	4 (≈ 3.13 µM)	32 (≈ 25.1 µM)	4 (≈ 3.13 µM)	4 (≈ 3.13 µM)	2 (≈ 1.57 µM)							100
CN[C@H](CC(C)C)C(=O)N[C@H]1C(=O)N[C@@H](CC(N)=O)C(=O)N[C@H]2C(=O)N[C@H]3C(=O)N[C@H](C(=O)N[C@H](C(=O)NCCCCCCCCCCN)c4cc(O)cc(O)c4-c4cc3ccc4O)[C@H](O)c3ccc(c(Cl)c3)Oc3cc2cc(c3O)Oc2ccc(cc2Cl)[C@H]1O [listing 2 of 2 here]	0.5 (≈ 0.385 µM)	2 (≈ 1.54 µM)	16 (≈ 12.3 µM)	2 (≈ 1.54 µM)	16 (≈ 12.3 µM)	1 (≈ 0.77 µM)	2 (≈ 1.54 µM)	2 (≈ 1.54 µM)							≥ 20
CN[C@H](CC(C)C)C(=O)N[C@H]1C(=O)N[C@@H](CC(N)=O)C(=O)N[C@H]2C(=O)N[C@H]3C(=O)N[C@H](C(=O)N[C@H](C(=O)O)c4cc(O)cc(O)c4-c4cc3ccc4O)[C@H](O)c3ccc(c(Cl)c3)Oc3cc2cc(c3O)Oc2ccc(cc2Cl)[C@H]1O [listing 2 of 2 here]									> 500	≥ 250	> 500	> 500	65	100	
